Patent EP0396251A2, “Use of fatty acids for the treatment of diseases associated with cytokines” (NATIONAL UNIVERSITY OF SINGAPORE, priority 1989, dated 1990)
“Also recorded” adds a separate entry of the source. Where two headings read alike, the source gives them in different places.

What was measured:
[1] = tested on: antiviral state induced by human α interferon; test: cells; assay type: cell-based; settings: for inhibited the action of interferon: summary of Table 3, concentrations and serum as in Table 3
[2] = tested on: total cellular protein synthesis; test: Total cellular protein synthesis; assay type: cell-based
[3] = tested on: antiviral state induced by human β interferon; test: cells; assay type: cell-based; settings: Fibroblast, 6 h, read-out: % inhibition of antiviral state induced by: human β interferon
[4] = tested on: interferon activity; settings: Sarkar and Gupta; cited from earlier work
[5] = tested on: total protein and RNA synthesis in the cells; settings: at concentrations exceeding 1000µM; Sarkar and Gupta; cited from earlier work
[6] = tested on: human alpha interferon-induced antiviral state; test: Kinetics of the inhibition of the interferon-induced antiviral state in human fibroblasts, Example 2; assay type: cell-based
Method: Human fibroblasts grown in 96 well Micro-test II plates were incubated with growth medium containing 1% fetal calf serum and 50µM arachidonic acid for up to 6 hours. The cells were then assayed for the inhibition of the human alpha interferon-induced antiviral state.
Also, human fibroblasts in 96 well Micro-test II plates were incubated with growth medium containing 1% fetal calf serum and 50µM arachidonic acid for 6 hours.

[7] = tested on: uptake of ³[H]-uridine by the cells; test: Uptake of 3[H]-uridine by the cells; assay type: cell-based
[8] = tested on: antiviral state induced by human γ interferon; test: cells; assay type: cell-based; settings: Fibroblast, 6 h, read-out: % inhibition of antiviral state induced by: human γ interferon
[9] = molecular target: T1, interferon receptors (Homo sapiens, UniProt P17181+P48551); test: Binding of 125I-labelled human alpha interferon to human fibroblasts (Scatchard plot), Example 3; settings: for down regulating the interferon receptors: Figures 4 and 5
T1 construct: endogenous in cells; host or cells: human fibroblasts
T1 sequence (P17181 28-557): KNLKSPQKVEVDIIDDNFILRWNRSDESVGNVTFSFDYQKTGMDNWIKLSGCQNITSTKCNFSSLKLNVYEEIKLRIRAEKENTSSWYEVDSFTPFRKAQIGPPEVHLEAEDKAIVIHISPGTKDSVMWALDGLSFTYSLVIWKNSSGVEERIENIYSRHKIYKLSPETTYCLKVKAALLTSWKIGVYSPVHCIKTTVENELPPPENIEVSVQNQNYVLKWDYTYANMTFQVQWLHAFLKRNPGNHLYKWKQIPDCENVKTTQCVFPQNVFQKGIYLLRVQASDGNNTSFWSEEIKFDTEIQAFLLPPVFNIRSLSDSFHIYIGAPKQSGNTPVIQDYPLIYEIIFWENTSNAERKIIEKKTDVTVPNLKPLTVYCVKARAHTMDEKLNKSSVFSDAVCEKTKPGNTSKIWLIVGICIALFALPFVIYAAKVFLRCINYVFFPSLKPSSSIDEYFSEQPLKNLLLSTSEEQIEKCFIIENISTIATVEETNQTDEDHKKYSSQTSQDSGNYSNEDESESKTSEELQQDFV
T1 sequence (P48551 27-515): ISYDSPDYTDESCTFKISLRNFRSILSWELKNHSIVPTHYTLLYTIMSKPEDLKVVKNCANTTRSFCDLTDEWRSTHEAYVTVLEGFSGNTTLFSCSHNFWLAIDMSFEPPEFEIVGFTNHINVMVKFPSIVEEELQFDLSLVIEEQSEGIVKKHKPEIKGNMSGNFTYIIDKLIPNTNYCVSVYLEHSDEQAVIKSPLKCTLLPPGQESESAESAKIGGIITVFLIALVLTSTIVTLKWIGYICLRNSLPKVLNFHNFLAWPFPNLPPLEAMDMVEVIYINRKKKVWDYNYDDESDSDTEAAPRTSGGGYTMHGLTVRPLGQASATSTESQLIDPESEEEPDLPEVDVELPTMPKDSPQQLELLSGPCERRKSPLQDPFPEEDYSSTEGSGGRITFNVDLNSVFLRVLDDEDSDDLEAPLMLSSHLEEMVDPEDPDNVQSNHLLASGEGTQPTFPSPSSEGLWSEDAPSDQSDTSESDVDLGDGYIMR
Method: The binding of interferons to human cells was analysed with human alpha interferon labelled with radioactive iodine. The ¹²⁵I-labelled human alpha interferon was assayed for biological activity as well as analysed by sodium dodecyl sulphate (SDS)-polyacrylamide gel electrophoresis before use to ensure that the labelled ligand was not degraded and biologically active. The labelled ligand was then used in binding studies with human fibroblasts as previously described (Thompson et al., Branca and Baglioni; and Epstein et al.). The results of this study are expressed as a Scatchard plot of the binding data in Figures 3 to 6. The cells were washed twice with growth medium to remove most of the fatty acid before they were used to measure the binding of ¹²⁵I-human alpha interferon to their receptors. B and F are concentration of bound and free ¹²⁵I-human alpha interferon respectively.

[10] = tested on: induction of antiviral state by mouse interferon in mouse A9 cells; assay type: cell-based; settings: 50 µM
[11] = tested on: induction of antiviral state by human α interferon in human fibroblasts; assay type: cell-based
[12] = tested on: induction of antiviral state by mouse interferon in mouse L cells; assay type: cell-based; settings: 50 µM
[13] = Homo sapiens, Fibroblast, 6 h, read-out: % inhibition of antiviral state induced by: human α interferon, 50µM compound, 10% fetal calf serum, 6 hours
[14] = Homo sapiens, Fibroblast, 6 h, read-out: % inhibition of antiviral state induced by: human α interferon, 50µM compound, 1% fetal calf serum, 6 hours
[15] = Homo sapiens, Fibroblast, read-out: % inhibition of the antiviral state induced by human α interferon, Table 4: 50 µM compound, 1% fetal calf serum
[16] = Homo sapiens, Fibroblast, read-out: % inhibition of the antiviral state induced by human α interferon, Table 4: 50 µM compound, 10% fetal calf serum

Structure (SMILES): CC(=O)N1CCN(c2ccc(OC[C@H]3CO[C@](Cn4ccnc4)(c4ccc(Cl)cc4Cl)O3)cc2)CC1 (relative stereo) [Ketoconazole, cis-1-acetyl-4-{4-[2-(2,4-dichlorophenyl)-2-imidazol-1-ylmethyl-1,3-dioxolan-4-ylmethoxy]phenyl}-piperazine, reference compound]
- inhibition at 100 µM ([1]; Homo sapiens, Fibroblast, 6 h, read-out: % inhibition of antiviral state induced by: human α interferon, 100µM compound, 10% fetal calf serum, 6 hours): ≥ 90%
- inhibited the action of interferon [1]: ≥ 90%
- inhibition of total cellular protein synthesis [2]: did not inhibit
- inhibition at 100 µM [3]: ≥ 90%

Structure (SMILES): O=c1c(O)c(-c2ccc(O)c(O)c2)oc2cc(O)cc(O)c12 [Quercetin]
- inhibition at 50 µM [1, 13]: 90%
- inhibited the action of interferon [1]: ≥ 90%

Structure (SMILES): CC(C)Cc1ccc(C(C)C(=O)O)cc1 (stereo not drawn) [ibuprofen]
- concentration at which interferon activity could be suppressed [4]: exceeding 1000 µM
- effect on total protein and RNA synthesis in the cells [5]: began to inhibit total protein and RNA synthesis

Structure (SMILES): CCCCCCCCC#CCC#CCC#CCCCC(=O)O [5,8,11,-eicosatriynoic acid, 5,8,11-eicosatriynoic acid]
- inhibition at 50 µM [1, 14]: ≥ 90%
- inhibited the action of interferon [1]: ≥ 90%

Structure (SMILES): CCCCCC=CCC=CCC=CCC=CCCCC(=O)O [arachidonic acid, 5,8,11,14-eicosatetraenoic acid]
- inhibition at 50 µM [1, 14]: ≥ 90%
- inhibition at 50 µM [1, 15]: ≥ 90%
- inhibition at 50 µM [1, 16]: 0%
- inhibition at 300 µM ([1]; Homo sapiens, Fibroblast, read-out: % inhibition of the antiviral state induced by human α interferon, Table 4: 300 µM compound, 10% fetal calf serum): ≥ 90%
- inhibited the action of interferon [1]: ≥ 90%
- reversibility of the inhibition after removal of compound ([6]; 50µM for 6 hours, washed, reincubated 0.5, 1, 2 or 24 hours, 1% fetal calf serum (Figure 2)): reversible with time
- onset of inhibition of the interferon-induced antiviral state ([6]; 50µM, 1% fetal calf serum, incubation up to 6 hours (Figure 1)): within minutes
- inhibition of total cellular protein synthesis [2]: did not inhibit
- inhibition of the uptake of ³[H]-uridine by the cells [7]: partially inhibited
- inhibition at 50 µM [8]: ≥ 80%
- inhibition at 50 µM [3]: ≥ 90%
- down regulating the interferon receptors [9]: 30-60%

Structure (SMILES): COc1ccc2c(c1)c(CC(=O)O)c(C)n2C(=O)c1ccc(Cl)cc1 [Indomethacin]
- % inhibition in mouse A9 cells [10]: not measurable
- concentration at which interferon activity could be suppressed [4]: exceeding 1000 µM
- % inhibition in human fibroblasts ([11]; 50 µM): not measurable
- % inhibition in human fibroblasts ([11]; 300 µM): could not measure any inhibitory effect; also recorded: not measurable
- % inhibition in mouse L cells [12]: not measurable

Structure (SMILES): CC(Cc1ccc(O)c(O)c1)C(C)Cc1ccc(O)c(O)c1 (stereo not drawn) [Nordihydroguaiaretic acid, 4,4′-(2,3-dimethyltetramethylene)bis(benzene-1,2-diol)]
- inhibition at 50 µM [1, 13]: ≥ 90%
- inhibited the action of interferon [1]: ≥ 90%
- inhibition at 50 µM [3]: ≥ 90%
- down regulation of the interferon receptors ([9]; 10% fetal calf serum (Figure 6)): does not seem to significantly down regulate

Structure (SMILES): CCCCC1C(=O)N(c2ccccc2)N(c2ccc(O)cc2)C1=O (stereo not drawn) [Oxyphenylbutazone]
- % inhibition in human fibroblasts ([11]; 50 µM): could not measure any inhibitory effect; also recorded: not measurable
- % inhibition in mouse L cells [12]: could not measure any inhibitory effect; also recorded: not measurable

Structure (SMILES): CCCCCC#CCC#CCC#CCC#CCCCC(=O)O
- inhibition at 50 µM [1, 14]: ≥ 90%
- inhibition at 50 µM [1, 15]: ≥ 90%
- inhibition at 50 µM [1, 16]: 0%
- inhibition at 200 µM ([1]; Homo sapiens, Fibroblast, read-out: % inhibition of the antiviral state induced by human α interferon, Table 4: 200 µM compound, 10% fetal calf serum): ≥ 90%
- inhibition at 200 µM ([1]; Homo sapiens, Fibroblast, read-out: inhibit the interferon-induced antiviral state, 200µM, 10% fetal calf serum): ≥ 90%
- inhibited the action of interferon [1]: ≥ 90%
- inhibition of total cellular protein synthesis [2]: did not inhibit
- inhibition of the uptake of ³[H]-uridine by the cells [7]: partially inhibited
- inhibition at 50 µM [8]: ≥ 80%
- inhibition at 50 µM [3]: ≥ 90%
- down regulating the interferon receptors [9]: 30-60%

Structure (SMILES): CCCCC/C=C\C/C=C\C/C=C\C/C=C\CCCC(=O)O [sodium arachidonate]
- inhibition at 300 µM ([1]; Homo sapiens, Fibroblast, read-out: inhibit the interferon-induced antiviral state, 300µM, 10% fetal calf serum): ≥ 90%
